ChEMBL document CHEMBL1201862, “PubChem BioAssay data set” (2004)
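All cell lines were grown in 96-well plates and treated with compound for 48 hours. GI50: concentration for 50% inhibition of growth.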 Calls of active or inactive are those of the source. Rule as the data show it: active = GI50 up to about 1.1 µM and inactive = higher.

Experiments:
Assay in all cases: NCI tumour cell line growth inhibition, 48 h
HOP-18 = tested on: HOP-18
DMS-273 = tested on: DMS-273
RXF 631 = tested on: RXF 631
M19-MEL = tested on: M19-MEL
LXFL 529 = tested on: LXFL 529
DLD-1 = tested on: DLD-1
XF498 = tested on: XF498
BT-549 = tested on: BT-549

Compound	GI50 (HOP-18)	GI50 (DMS-273)	GI50 (RXF 631)	GI50 (M19-MEL)	GI50 (LXFL 529)	GI50 (DLD-1)	GI50 (XF498)	GI50 (BT-549)
Nc1c(Br)c(=O)[nH]c(=O)n1COCCO	> 100 µM (inactive)	> 100 µM (inactive)	> 100 µM (inactive)	> 100 µM (inactive)	> 100 µM (inactive)	> 100 µM (inactive)	> 100 µM (inactive)	–
C[n+]1cn(CC(=O)c2ccccc2)c(C(N)=O)c1N	> 100 µM (inactive)	> 100 µM (inactive)	> 100 µM (inactive)	25.2 µM (inactive)	61.7 µM (inactive)	> 100 µM (inactive)	–	–
O/N=C1\C(=C\c2ccc3c(c2)OCCO3)CCCC1C(NO)c1ccc2c(c1)OCCO2 (configuration not stated)	43.4 µM (inactive)	19.2 µM (inactive)	32.9 µM (inactive)	24.9 µM (inactive)	20.2 µM (inactive)	31.6 µM (inactive)	–	–
N#CC(C(=O)CCCC(=O)Nc1ccccc1[N+](=O)[O-])c1c(Cl)cccc1Cl (configuration not stated)	31 µM (inactive)	> 100 µM (inactive)	> 100 µM (inactive)	> 100 µM (inactive)	> 100 µM (inactive)	> 100 µM (inactive)	> 100 µM (inactive)	–
CC(CC(=O)Nc1ccc(NC(=O)CC(C)/N=N\C(N)=S)cc1)/N=N\C(N)=S (configuration not stated)	> 100 µM (inactive)	36.9 µM (inactive)	> 100 µM (inactive)	> 100 µM (inactive)	> 100 µM (inactive)	> 100 µM (inactive)	> 100 µM (inactive)	–
Cc1cc(NS(=O)(=O)c2ccc(Nc3c4ccccc4nc4c(C(=O)Nc5ccc(S(=O)(=O)N=C(N)N)cc5)cccc34)cc2)no1	> 100 µM (inactive)	> 100 µM (inactive)	> 100 µM (inactive)	> 100 µM (inactive)	> 100 µM (inactive)	> 100 µM (inactive)	> 100 µM (inactive)	–
COC12OCCN(C)C1=CC(=O)C1N=NCC12 (configuration not stated)	> 100 µM (inactive)	> 100 µM (inactive)	> 100 µM (inactive)	> 100 µM (inactive)	> 100 µM (inactive)	> 100 µM (inactive)	–	–
Cc1ccccc1C(=O)c1cc(O)ccc1O	> 100 µM (inactive)	42.3 µM (inactive)	> 100 µM (inactive)	> 100 µM (inactive)	> 100 µM (inactive)	55.7 µM (inactive)	> 100 µM (inactive)	–
Cc1ccc(S(=O)(=O)O/N=C2\CCC\C2=C/c2ccccc2)cc1	20.3 µM (inactive)	32.8 µM (inactive)	16.9 µM (inactive)	20.1 µM (inactive)	16.6 µM (inactive)	19.1 µM (inactive)	18.5 µM (inactive)	–
COc1ccc2c3c([nH]c(=O)c2c1C(=O)O)-c1ccccc1CC3	–	> 100 µM (inactive)	> 100 µM (inactive)	–	> 100 µM (inactive)	> 100 µM (inactive)	> 100 µM (inactive)	–
O=Cc1[nH]c2ccccc2c1Br	27.7 µM (inactive)	17.8 µM (inactive)	20 µM (inactive)	22.1 µM (inactive)	25.5 µM (inactive)	22.6 µM (inactive)	30.1 µM (inactive)	–
OCC(O)C(O)c1nn(-c2ccccc2)c2nc3cc(Cl)c(Cl)cc3nc12 (configuration not stated)	26.7 µM (inactive)	15.7 µM (inactive)	18.9 µM (inactive)	28.8 µM (inactive)	20.6 µM (inactive)	26.1 µM (inactive)	28.5 µM (inactive)	–
NC(=O)C(=Cc1ccc(C(O)P(=O)(O)O)cc1)C(N)=O (configuration not stated)	> 100 µM (inactive)	> 100 µM (inactive)	> 100 µM (inactive)	> 100 µM (inactive)	> 100 µM (inactive)	> 100 µM (inactive)	> 100 µM (inactive)	–
CCC1(CN(C)C)CC/C(=C\c2ccc(OC)cc2)C1=O (configuration not stated)	> 100 µM (inactive)	> 100 µM (inactive)	62.7 µM (inactive)	> 100 µM (inactive)	94 µM (inactive)	58.3 µM (inactive)	–	–
C[C@@H](C1CCC2C3C(=CC(=O)[C@@]21C)[C@H](C)[C@]1(CCC(=O)O1)C1OC31)[C@H]1C[C@]2(C)O[C@@](C)(O1)OC2(C)C (some centres not stated)	> 100 µM (inactive)	> 100 µM (inactive)	> 100 µM (inactive)	> 100 µM (inactive)	> 100 µM (inactive)	> 100 µM (inactive)	> 100 µM (inactive)	–
COc1ccc(CCc2cc(OC)c(OC)c(OC)c2)cc1	> 100 µM (inactive)	< 0.01 µM (active)	< 0.0166 µM (active)	< 0.0226 µM (active)	0.0552 µM (active)	< 0.01 µM (active)	< 0.01 µM (active)	2.32 µM (inactive)
